# Experimental data from US20060009475A1, “Quinazolinone compounds in combined modalities for improved cancer treatment” (priority 2001, published 2006).
# “And” between values parts separate entries of the source, which are not always exact repeats. Equal entries are not always repeated.
# Tests used:
# [1] = cited from earlier work
# [2] = tested on: human T98G glioblastoma xenograft (sc tumor); assay type: in vivo, mice; details: BCNU 15 mg/kg ip, days 7, 9, 11, alone
# Description: Each group contained 5 mice.
# [3] = tested on: human T98G glioblastoma (ic tumor); test: Human T98G glioblastoma implanted intracranially, survival (increase-in-lifespan); details: BCNU 15 mg/kg ip, days 7, 9, 11, alone
# Experimental: Halofuginone was tested in the human T98G glioblastoma xenograft implanted subcutaneously or intracranially. Mice were implanted with the human T98G glioblastoma tumor cells subcutaneously in a thigh or intracranially.
# Halofuginone was administered orally by gavage at dose levels of 0.1,0.2, and 0.5 mg/kg/day, once per day, on days 4 through 34 days post tumor implantation. Each group contained 5 mice.
# The endpoint for the subcutaneous tumor was tumor growth delay while the endpoint for the intracranial tumor was increase-in-lifespan (survival).
# U266 cells = test: Cell cycle analysis of multiple myeloma cells by flow cytometry; assay type: cell-based; details: 48 hours, different concentrations
# Experimental: Multiple Myeloma (MM) cell line U266B1 was purchased from ATCC (TIB-196).
# Cells (10^6) were incubated for 48 hours with different concentrations of halofuginone. The cells were permeabilized with 70% ethanol in PBS for 30 minutes at 4° C., and then incubated with 0.5 ml of a 50 μg/ml Propidium Iodide solution containing 20 U/ml RnaseA for 30 minutes. Cells were analyzed by flow cytometry.
# [4] = tested on: rabbit aortic smooth muscle cells (SMC); test: [3H]-thymidine incorporation / cell cycle arrest in serum-stimulated smooth muscle cells; assay type: cell-based
# Experimental: Experiments were conducted to determine the specific phase of the cell cycle in which SMC treated with halofuginone were arrested.
# As determined by [^3H]-thymidine incorporation, addition of 10% FBS to growth-arrested, quiescent SMC promotes entry of the cells to S phase after a G1 period of 16 hours. Maximal DNA synthesis was seen 20 hours after serum-stimulation (FIG. 1).
# It was next determined whether halofuginone arrested proliferation at a specific stage in the cell cycle. For these experiments, quiescent SMCs were kept in 10% FBS plus 10^−7 M halofuginone for 24 hours. The cultures were then washed and placed in 10% FBS with [^3H]-thymidine and without halofuginone. At various times after halofuginone removal, the cells were harvested and thymidine incorporation was determined. When halofuginone-treated cells were released from growth-arrest, there was a lag of 4-6 hours before initiation of DNA synthesis, which peaked by 10 hours (FIG. 1).
# [5] = tested on: pancreatic cancer cell lines 3602 Xrt and 3602 Zyrd/Xrt; test: Radiation survival of pancreatic cancer cell lines pre-treated with halofuginone; assay type: cell-based, human; details: 250 nM halofuginone for 24 hr, then radiated with 0-8 Gy
# Experimental: Two pancreatic cancer cell lines: 3602 Xrt and 3602 Zyrd/Xrt were incubated with or without 250 nM halofuginone for 24 hr, than radiated with 0-8 Gy. Survival fraction of the cell was determined.
# [6] = tested on: radiation-induced fibrosis (leg contraction); test: Leg contraction model of radiation-induced fibrosis; assay type: in vivo, mice
# Experimental: Mice were injected intraperitoneally once daily with 1-5 μg/mouse of halofuginone, for a period of 4 months.
# The right leg only of each animal was radiated with 35Gy or 45Gy. […] Measurements were taken within time periods of 2 to 4 months after radiation.
# [7] = tested on: rat mesangial cells (RMC); test: Cell cycle analysis of mesangial cells by propidium iodide FACScan; assay type: cell-based; details: 150 ng/ml halofuginone, 24 hours, 10% FCS
# Experimental: Further experiments were conducted to determine whether halofuginone arrests mesangial cell proliferation at a specific phase of the cell cycle.
# For this purpose sub confluent RMC's were kept in 10% FCS in the absence or presence of 150 ng/ml halofuginone for 24 hours. The cells were then harvested, stained with propidium iodide and analyzed by FACScan. The percentage of cells progressing into G2/M phase was reduced by halofuginone from 20% to 7%. The percentage of cells in G0/G1 was increased from 38% in the absence of halofuginone to 65% in the presence of halofuginone.
# [8] = 24 hours 10^-7 M halofuginone + 10% FBS, then washed
molecule,measurement,setting,value
Bleomycin,death of patients associated with pulmonary fibrosis,[1],1% to 2
same,treated patients with induced pulmonary fibrosis,[1],10% to 30
"O=NN(CCCl)C(=O)NCCCl [BCNU, 1,3-bis(2-chloroethyl)-1-nitrosourea]",TUMOR GROWTH DELAY Days (sc tumor),[2],3.8 days and 3.9 ± 0.4 days
same,SURVIVAL Days (ic tumor),[3],97 ± 21 days
"O=C(CC1NCCC[C@H]1O)Cn1cnc2cc(Br)c(Cl)cc2c1=O (stereo in doubt) [halofuginone, 7-bromo-6-chloro-3-[3-(3-hydroxy-2-piperidinyl)-2-oxopropyl]-4(3H)-quinazolinone]",number of cells arrested in G1 phase,U266 cells,elevation
same,[3H]-thymidine incorporation,[4]; 10^-7 M halofuginone added with 10% FBS to quiescent SMC,only low levels
same,lag before initiation of DNA synthesis after release from growth-arrest,[4]; [8],4 to 6 h
same,time of peak DNA synthesis after halofuginone removal,[4]; [8],10 h
same,cell cycle phase of arrest,[4]; continual presence of halofuginone,reversibly arrest at late G1 phase
same,decrease in the survival fraction,[5],approximately 50%
same,leg length difference between the right and left leg,"[6]; 1-5 μg/mouse ip once daily, 35Gy or 45Gy, 2 and 4 months post radiation",dramatic decrease
same,"condition of irradiated leg (stiffness, skin)",[6]; versus mice that did not receive halofuginone,"definitely less stiff, and the skin was less dry"
same,percentage of cells in G0/G1,[7],65%
same,percentage of cells progressing into G2/M phase,[7],7%
